Experimental findings from US12582720B2, “Compound for preventing or treating lipid metabolism-related diseases” (Fudan University, priority 2020, dated 2026) are described below.

Where two headings read alike, the source gives them in different places.

The Kd is the free concentration of one partner at which half of the binding sites on the other are occupied at equilibrium, for simple one-to-one binding.

One data set has as its target LC3B (Homo sapiens, UniProt Q9GZQ8). Briefly: MST detection of affinity activity with LC3B. The data set is classed as binding. Set-up: His8 (with TEV site) (N); made in house; host or cells: Escherichia coli BL21(DE3)pLysS. As for the experimental part: The recombinant GST-LC3B proteins were prepared and purified, dialyzed into 1×PBS, and then labelled with the red fluorophore with the protein labeling kit RED-NHS (Nanotemper, cat. no. L001).
The MST experiments were performed using the Monolith NT.115 instrument (NanoTemper Technologies). The reaction buffer contains 20 mM HEPES, pH 7.4, 150 mM NaCl, and the protein concentration was 500 nM. The MST data were collected under 40% infrared laser power and 20% light-emitting diode power. The data were analyzed by Nanotemper software.

Data set [1] has as its system lipid droplets in SH-SY5Y cells. Briefly: Reduction of OA-induced lipid droplets in SH-SY5Y cells. Format: cell-based, human. The following applies: unconjugated compound 5 μM. The text has this: The reduction of lipid droplets in SH-SY5Y cells by Compound 1A and Compound 2A was detected by a method that was similar to Example 2, and the result was shown in FIG. 18.
The effects of unconjugated LC3 binding Compound A1, A5 and unconjugated lipid droplet probe ORBB […] respectively on lipid droplets in SH-SY5Y cells (FIG. 20A) and MEF cells (FIG. 20B) were detected by a method similar to Example 2.

For data set [2], the system named is lipid droplets in 3T3-L1 fat precursor cell differentiated fat cells. Briefly: Lipid droplets in 3T3-L1 fat precursor cell differentiated fat cells. Format: cell-based, mouse. The following applies: 3T3-L1 differentiated fat cells, 5 μM, 24 h.
Data set [3] deals with lipid droplets in wild type MEF cells. Briefly: Reduction of OA-induced lipid droplets in wild type MEF cells (BODIPY 493/503 staining). Format: cell-based, mouse. Particulars: MEF, unconjugated compound 5 μM. How it is done: (5) OA-BSA stock solution was prepared into OA-BSA working solution (50× final concentration, 200 μM), and 40 μl of OA-BSA working solution was added to each well to induce lipid droplets. For the non-OA induction group, 40 μl of 10% BSA solution was added to the control well, and the amount of BSA was the same as that of the experimental group.
Compounds were formulated into DMSO stock solutions. Stock compounds were diluted with DMSO into the indicated concentrations of working solutions prior to use in the treatment of cells. After induction of the lipid droplets with OA for the indicated time, the test compounds were added to the cells respectively. Control wells were replaced with the equal volume of DMSO. Unless otherwise stated, the compounds were diluted into 10× solutions using the culture medium and added to the culture medium for 24 hours of incubation. Cells were treated with compounds in a 37° C. incubator with 5% CO2.
(3) The original medium in the multi-well plates was removed, washed and the cells was fixed, 1 ml of the BODIPY solution prepared in (1) was added to each well, and stained for 15 minutes. The staining solution was aspirated and washed with 1×PBS.
(5) The coverslips laid in the multi-well plates were removed, and imaged with the Zeiss 880 confocal microscope after mounted, and analyzed the size and number of lipid droplets with ImageJ.
Wild type MEF cells were cultured in a DMEM culture medium containing 10% FBS. Cells were plated according to the method as described above (12 well plate was plated with aseptic treated slides). When cells grew to a confluence of 60-70%, lipid droplets were induced with OA for 30 h according to the method as described above.
At the time point of 6th hour after initiation of induction, the cells were treated (treated for 24 hours) with Compound 1A or Compound 2A (compound concentrations were 50 μM, 15.8 μM, 5 μM, 1.58 μM, 0.5 μM, 0.158 μM) according to the method as described above.

Another data set concerns db/db mice. Briefly: Effect of the compound on db/db mouse. The data set is classed as in vivo. An excerpt: Experimental animals: nineteen-week-old db/db male mice (C57BL/6J-Lepr^db/Lepr^db) were obtained from Shanghai Model Organisms Co., Ltd., and acclimatized for at least 1 week before experiments. The mice had ad libitum access to standard chow and water.
Normal control: The C57BL/6 male mice fed on standard irradiated chow diet (Shuyishuer Inc. cat. no. D12450J) from Changzhou Shuyishuer Biotechnology Co., Ltd. (Shuyishuer Inc.) were used as the normal control.
Mice were randomly divided into 7 groups, wherein 8 mice in each group, and the mice in each group were subjected to intraperitoneal injection to administer: (1) only vehicle (no DMSO) group: 0% DMSO+39% PEG300 (Selleck, cat. no. S6704)+5% Tween-80 (Selleck, cat. no. S6702)+56% distilled water, (2) DMSO group: 1% DMSO+39% PEG300+5% Tween-80+55% H2O (DMSO vehicle), (3) C3 group: Compound 3A was in DMSO vehicle, (4) C4 group: Compound 4A in DMSO vehicle, (5) SIII group: Sudan III DMSO vehicle, (6) GW5074 group: Compound A1 in DMSO vehicle, (7) DP group: Compound A5 in DMSO vehicle. For groups (3)-(7), the compound (30 mg/kg, administration volume 150 μL) was administered through intraperitoneally injection for consecutive 2 weeks, and once a day. The food and water intake were measured with an analytical electronic balance.
Bodyweight was weighed every day.
If time permitted, tail vein blood (30-50 μL) was collected every 1-3 days.
24 hours after the time point of the last injection, end point maxillary surface blood sampling was performed on each mouse. All mice were Euthanized by cervical dislocation, and then tissue sample (e.g., liver samples) were obtained and stored in Eppendorf tubes at −80° C. for assay.
12 days after initiation of administration, each mouse was scanned by a minispec nuclear magnetic resonance (NMR) instrument (Bruker LF50 II “Minispec” body composition analyzer, Bruker Optics) that was designed for experimental animals, and based on the measurement of solid and liquid parts of the samples, the body fat and lean body weight were determined by this device.
Serum: Tail vein blood samples (30-50 μL) were left to coagulate in […] blood collection tubes (Jiangsu Kangjian Medical Products Co., Ltd., model KJ002) at room temperature without interference, and then centrifuged at 2,000×g for 10 minutes at 4° C. to remove the clot. Supernatant was collected to obtain the serum.
Liver: Liver samples were obtained as described in (2). 100 mg of liver tissue was homogenized in 0.9 mL of absolute alcohol under ice-cold conditions, and then centrifuged (2,500 r.p.m/min, 10 min). Supernatant was collected, and then stored at −80° C.
The kits were used according to the instruction from manufacturer (TAG: TG kit, cat. no. A110-1-1; TC: T-CHO kit, cat. no. A111-1. FFA: NEFA kit, cat. No. A042-2-1; they were all from Nanjing Jiancheng Bioengineering Institute). TAG, TC and FFA levels in serum and liver samples were determined.
According to the lipidomic method as described above, the contents of liver total lipid, glycerolipid, sterol lipid, neutral sphingolipid and polar lipid were analyzed. The log 2-fold change (log2 FC) and statistical significance (p-value) relative to the DMSO group were calculated.

Data set [4] concerns lipid droplets in human normal liver cell line QSG7701. Briefly: Endogenous lipid droplets in human normal liver cell line QSG7701. Format: cell-based. The following applies: QSG7701, no induction, 5 μM, 24 h. How it is done:
10% FBS+90% RPMI 1640 culture medium was used for cultivation, cell incubator culture condition of 37° C. and 5% CO2 was used. Cells were plated as 50 thousands/well (12 well plate was plated with aseptic treated slides). When cells grew to a confluence of 80-90%, the compound (Compound 1A or Compound 2A, at a concentration of 5 μM) was added for treatment, and LC3 binding Compound A1, A5, lipid droplet probe Sudan IV as well as DMSO acted as a control. […]. In the compounds of present disclosure, LC3 binding moiety was covalently linked with lipid droplet binding moiety, and thus could achieve the effect of reducing liver cell endogenous lipid droplet.

For data set [5], the system named is autophagosome-lipid droplet colocalization in MEF cells. Briefly: Colocalization of autophagosome and lipid droplets in mCherry-LC3B transfected MEF cells. The data set is classed as cell-based, mouse. Particulars: 5 μM, 3 h, compared to DMSO control. How it is done: (1) In MEF cells, mCherry-LC3B was expressed by cDNA plasmid transfection.
(2) OA was added to the culture medium 30 hours after transfection to induce lipid droplets.
(3) Compounds were added to treat cells 6 hours after induction.
(4) 3 hours after compounds addition, cells were fixed and BODIPY stained.
(5) The coverslips laid in the multi-well plates were removed, and imaged with the Zeiss 880 confocal microscope after mounted to observe the aggregation of LC3 puncta around the lipid droplets.
In MEF cells, mCherry-LC3B was expressed by cDNA plasmid transfection. At 30th hour of overexpression, OA was added into cells for lipid droplet induction. 6 hours later, the compound was added for 3 hours' treatment, and then cells were subjected to immunostaining. […] Lipid droplets (green) were stained with BODIPY stain, and nucleus were indicated with DAPI stain. […] In FIG. 24, the colocalized autophagosome-lipid droplet was marked with circles.

Where [6] appears, read: MST, read-out: Kd, equilibrium dissociation constant between the LC3 binding compound and LC3B.

As for `O=C(O)c1cc2ccc(O)cc2oc1=O` [Compound A4], on LC3B (setting [6]), the Kd is 3 µM.
Turning to `O=c1cc(-c2ccccc2)c2c(O)cc(O)cc2o1` [Compound A5, 5,7-dihydroxy-4-phenyl-2H-coumarin, reference compound], the “lipid droplets (number and size)” value in data set [1] and in data set [3] was “did not significantly decrease or become smaller” throughout. Also, the “amount/size of lipid droplets” value in data set [2] is “no significant effect”. Further, the “mice died in the experiment” value with db/db mice (30 mg/kg ip, 8 mice per group) is “one mouse”. Also, in data set [4], the “endogenous lipid droplets (amount)” value is given as “no significant effect”.
As for `COc1ccc(-c2cc(=O)oc3c(C)c(O)c(CN(C)C)cc23)cc1` [Compound A7], the Kd on LC3B (setting [6]) turned out to be 0.672 µM.
Consider `Cc1ccc(C(=O)N(CCCN)[C@@H](c2nc3cc(Cl)ccc3c(=O)n2Cc2ccccc2)C(C)C)cc1` [Compound A8, ispinesib], for which binding on LC3B was characterised by a dissociation constant (Kd) of 0.462 ± 0.11 µM.
`Nc1ncnc2c1c(-c1cccc(OCc3ccccc3)c1)cn2C1CC(CN2CCCC2)C1` (centres unmarked) [Compound A10]: on LC3B (setting [6]), the dissociation constant (Kd) was 3.98 ± 0.537 µM.
`COCC(=O)NC/C=C/c1ccc2ncnc(Nc3ccc(Oc4ccc(C)cc4)c(C)c3)c2c1` [Compound A11]: on LC3B (setting [6]), the dissociation constant (Kd) was 2.78 ± 0.577 µM.
As to `CC(C)(C)c1cc(NC(=O)Nc2ccc(-c3cn4c(n3)sc3cc(OCCN5CCOCC5)ccc34)cc2)no1` [Compound A12], the dissociation constant (Kd) on LC3B (setting [6]) is 21.3 ± 1.69 µM.
Still for that read-out and setting: the value for `Cc1csc(-c2nnc(Nc3ccc(Oc4ncccc4-c4ccnc(N)n4)cc3)c3ccccc23)c1` [Compound A13] was 5.19 ± 0.282 µM.
As for `OCCCCCCCCCCBr` [Linker, 10-bromo-1-decanol, reference compound], in data set [2], the “amount/size of lipid droplets” value was “no significant effect”.
In the case of `Oc1ccc2ccccc2c1/N=N/c1ccc(/N=N/c2ccccc2)cc1` [Sudan III, reference compound], the “amount/size of lipid droplets” value in data set [2] was “no significant effect”. In addition, in the data set on db/db mice (lipidomics), the TAG in liver result is on record as “not reduced”; the “other major neutral lipids, cholesteryl ester (ChE) and diglyceride (DG) in liver” value is listed as “not reduced”. The “interaction with LC3B” value at LC3B (MST) is reported as “No interaction”.
Regarding `Cc1ccccc1/N=N/c1ccc(/N=N/c2c(O)ccc3ccccc23)c(C)c1` [Sudan IV, reference compound], in data set [5], the “ratio of colocalization of red and green aggregation point (autophagosome-lipid droplet)” value was “No such effect”. In addition, the “lipid droplets (number and size)” value in data set [1] and in data set [3] was “did not significantly decrease or become smaller” each time. In addition, the “amount/size of lipid droplets” value in data set [2] is reported as “no significant effect”. For the same compound, at LC3B (MST), the “interaction with LC3B” value is “No interaction”. Besides, the “endogenous lipid droplets (amount)” value in data set [4] was “no significant effect”.
